Measurements as given in PubChem BioAssay (NCI).
Several values for one entry are separate records, joined by “and”; a condition that tells them apart may be missing. Equal entries are not always repeated.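 How tested: cells in 96-well plates exposed to compound for 48 hours at five concentrations. GI50 = concentration required for 50% inhibition of growth. TGI: concentration producing complete growth inhibition.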

Columns and labels:
Test in all cases: NCI-60 cell line screen, 48 h
[1] = test system: OVCAR-5 ovarian
[2] = test system: OVCAR-3 ovarian
[3] = test system: IGROV1 ovarian
[4] = test system: NCI-H23 lung
[5] = test system: NCI-H460 lung
[6] = test system: SK-OV-3 ovarian
[7] = test system: A549 NSCLC
[8] = test system: CCRF-CEM leukemia
[9] = test system: NCI/ADR-RES ovarian
[10] = test system: SR leukemia

Row | Compound | TGI [1] [µM] | TGI [2] | TGI [3] | TGI [4] | TGI [5] | TGI [6] | TGI [7] | TGI [8] | TGI [9] [µM] | TGI [10] [µM] | GI50 [10] [µM] | GI50 [9] [µM] | GI50 [1] [µM] | GI50 [2] [µM] | GI50 [8] [µM] | GI50 [3] [µM] | GI50 [4] [µM] | GI50 [5] [µM] | GI50 [6] [µM] | GI50 [7] [µM]
1 | CC1CCCC2(O1)OC1CC(=O)OC1C1=C2C(=O)c2ccccc2C1=O (stereo not given) | 35 | 10.5 µM | 6.87 µM | 19.7 µM | 67.2 µM | 30 µM | 35.5 µM | – | – | – | – | – | – | – | – | – | – | – | – | –
2 | Nc1nc(N)c2nn(-c3ccc(C(=O)O)cc3)nc2n1 | > 100 | > 100 µM | > 100 µM | > 100 µM | > 100 µM | > 100 µM | > 100 µM | > 100 µM | > 100 | – | – | – | – | – | – | – | – | – | – | –
3 | O=[N+]([O-])c1ccc(-c2ccc(C3=Nn4c(nnc4-c4ccc(Cl)cc4)SC3)o2)cc1 | > 100 | > 100 µM | > 100 µM | > 85.9 µM | > 100 µM | > 100 µM | > 100 µM | > 100 µM | – | > 100 | – | – | – | – | – | – | – | – | – | –
4 | O=C1c2cccc3cc4ccccc4c(c23)C(=O)N1CCCNCCNCCCN1C(=O)c2cccc3cc4ccccc4c(c23)C1=O | 1.98 | 1.86 µM | 1.72 µM | 1.77 µM | 0.161 µM | 1.65 µM | 0.373 µM | – | – | 1.51 | – | – | – | – | – | – | – | – | – | –
5 | COc1cccc2c1C(=N)c1c(O)c3c(c(O)c1C2=O)C[C@@](O)(C(C)=O)C[C@@H]3OC1CC(N)C(O)C(C)O1 (stereo not given in full) | – | 5.43 µM and 4.73 µM and 13 µM | 6.39 µM and 9.25 µM | 0.607 µM and 1.62 µM and 1.2 µM | 2.01 µM and 2.11 µM and 0.239 µM | 1.85 µM and 4.8 µM and 13.6 µM | 0.926 µM and 1.46 µM and 1.01 µM | 0.473 µM and 0.975 µM | – | – | 0.0196 | 0.466 | – | – | – | – | – | – | – | –
6 | COc1ccc(C(=O)CC(Cl)=C(Cl)Cl)cc1 | 50.4 | 41.2 µM | 75.9 µM | 47.1 µM | > 100 µM | > 100 µM | > 100 µM | > 100 µM | 59.4 | – | – | 25.2 | 22.6 | 20.6 | 30.3 | 28.3 | 23.3 | > 100 | > 100 | > 100
7 | CCCCCCCCCCCCOC1C(C(COC2OC(C(O)CO)C3OC(C)(C)OC23)OC(=O)Nc2ccc([N+](=O)[O-])cc2)OC2OC(C)(C)OC21 (stereo not given) | 19.1 | 3.14 µM | 5.73 µM | 28.2 µM | 13.5 µM | 30.8 µM | 10.7 µM | – | 26.5 | – | – | 12.3 | 5.41 | 1.65 | – | 2.34 | 12.6 | 3.74 | 15.9 | 3.36
8 | COc1cc(OC)c(-c2oc3ccccc3c(=O)c2O)c(OC)c1 | > 100 | – | > 100 µM | > 100 µM | > 100 µM | > 100 µM | > 100 µM | > 100 µM | 5.05 | > 100 | – | – | – | – | – | – | – | – | – | –
9 | S=C(N/N=C/c1ccccc1)NC1CC(c2ccccc2)Oc2ccccc21 (stereo not given) | > 100 | 28.7 µM | > 100 µM | > 100 µM | > 100 µM | > 100 µM | > 100 µM | – | – | > 100 | – | – | – | – | – | – | – | – | – | –
10 | O=C1C2=C(Nc3cc([N+](=O)[O-])ccc3N2)OC1c1c[nH]c2ccc(COc3ccccc3)cc12 (stereo not given) | > 100 | > 100 µM | > 100 µM | > 100 µM | > 100 µM | > 100 µM | > 100 µM | – | > 100 | > 100 | – | – | – | – | – | – | – | – | – | –
11 | COCC(O)CN1C(N)=NC(O)C1O (stereo not given) | > 100 | – | – | > 100 µM | > 100 µM | – | > 100 µM | – | – | > 100 | – | – | – | – | – | – | – | – | – | –
12 | N#Cc1c(-c2ccc(Cl)cc2)n([O-])c2ccccc2[n+]1=O | 30.6 | 2.88 µM | 15.6 µM | 31.3 µM | 42.8 µM | 72.3 µM | 55.4 µM | 8.2 µM | 16.1 | – | – | 4.05 | 16.7 | 1.27 | 2.63 | 2.89 | 16.2 | 18.5 | 24.8 | 22.2
13 | Cc1nc2c(=O)n(C)c(=O)nc-2n(-c2ccc(Cl)cc2)c1C | > 100 | > 100 µM | > 100 µM | > 100 µM | > 100 µM | > 100 µM | > 100 µM | > 100 µM | – | – | – | – | – | – | – | – | – | – | – | –
14 | CNCc1ccc(C)c(NC(=O)c2ccc(Nc3nc(-c4ccccc4)c4ccccc4n3)cc2)c1 | 4.56 | 3.84 µM | – | 3.71 µM | 3.38 µM | 4.08 µM | 3.4 µM | 5.43 µM | 5.25 | 4.86 | 1.79 | 2.25 | 2.13 | 1.9 | 2.07 | – | 1.87 | 1.8 | 2.18 | 1.78
15 | COc1ccc(C2CC(c3ccc(OC)c(OC)c3)=NN2C(=O)c2cc(OC)c(OC)c(OC)c2)cc1 (stereo not given) | > 100 | – | > 100 µM | > 100 µM | > 100 µM | > 100 µM | > 100 µM | > 100 µM | 6.02 | > 100 | 2.07 | 0.95 | 9.26 | – | 4.29 | 3.32 | 3.46 | 3.54 | 1.76 | 2.88
16 | O=C1[C@@H]2C3C=CC([C@H]4C(=O)N(CO)C(=O)[C@@H]34)[C@@H]2C(=O)N1CO | > 100 | > 100 µM | > 100 µM | > 100 µM | > 55.1 µM | > 100 µM | > 100 µM | 59.3 µM | – | – | – | – | – | – | – | – | – | – | – | –
17 | CC(C)(O)C1CC(=O)C(C)(C2C(O)CC3(C)C4CC=C5C(CCC(O)C5(C)C)C4(C)C(=O)CC23C)O1 (stereo not given) | > 100 | > 100 µM | > 100 µM | > 100 µM | > 100 µM | > 100 µM | > 100 µM | – | – | – | – | – | – | – | – | – | – | – | – | –
18 | Cc1ccc(S(=O)(=O)NC2(C=O)CCC(C(C)(C)C)CC2)cc1 (stereo not given) | > 100 | > 100 µM | > 100 µM | 85.6 µM | > 100 µM | > 100 µM | > 100 µM | – | – | 36.9 | – | – | – | – | – | – | – | – | – | –
19 | CCCCCC1C2C(=O)NC(=O)C1C(=O)NC2=O (stereo not given) | > 100 | > 100 µM | > 100 µM | > 100 µM | > 100 µM | > 100 µM | > 100 µM | > 100 µM | – | – | – | – | – | – | – | – | – | – | – | –
